Assay results from ChEMBL document CHEMBL1201862, “PubChem BioAssay data set” (2004).
The source made the active and inactive calls. For most assays here, no stated cut-off is given here; in the data, actives have a measured EC50 and inactives only a lower limit.

Legend:
[1] = molecular target: T1, Heat shock factor protein 1 (Mus musculus, UniProt P38532); assay: HSF1 potentiators in luciferase reporter cells, confirmation, cell-based, NIH3T3, luminescence, dose retest (AID 435004); format: functional;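 further: stress induced by proteasome inhibitor MG132 added 30 min after compound; luciferase reporter driven by HSF1 response element in NIH3T3 cells; actives raise luminescence as potentiators of the MG132 stress response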
T1 sequence (P38532 whole entry): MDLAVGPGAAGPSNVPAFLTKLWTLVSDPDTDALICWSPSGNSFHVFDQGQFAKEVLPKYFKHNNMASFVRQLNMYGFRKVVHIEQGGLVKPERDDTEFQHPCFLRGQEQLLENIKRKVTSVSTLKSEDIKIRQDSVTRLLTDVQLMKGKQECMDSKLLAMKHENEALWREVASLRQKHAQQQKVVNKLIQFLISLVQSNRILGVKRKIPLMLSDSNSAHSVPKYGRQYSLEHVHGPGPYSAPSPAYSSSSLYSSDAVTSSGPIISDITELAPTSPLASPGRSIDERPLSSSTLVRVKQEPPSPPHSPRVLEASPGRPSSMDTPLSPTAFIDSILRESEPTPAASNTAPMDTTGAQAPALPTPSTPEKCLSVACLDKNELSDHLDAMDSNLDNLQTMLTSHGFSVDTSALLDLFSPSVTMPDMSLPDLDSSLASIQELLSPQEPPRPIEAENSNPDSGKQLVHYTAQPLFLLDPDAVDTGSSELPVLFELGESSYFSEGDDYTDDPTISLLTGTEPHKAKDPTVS

[2] = test system: Streptococcus sp. 'group A'; assay: growth inhibition of control SK(-) GAS strain, dose response, counter-screen for streptokinase expression inhibitor project, luminescence, kanamycin, BacTiterGlo, confirmation (AID 1900); format: functional, organism-based
Streptococcus = assay: Group A Streptococcus viability loss, dose response, counter-screen for streptokinase expression inhibitor project, luminescence, BacTiterGlo (AID 1915); format: functional, organism-based;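 further: potency for reduction of bacterial viability or growth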
[3] = Luminescence Cell-Based Dose Retest to Confirm Inhibitors of Cancer Stem Cells. [Related pubchem assays (depositor defined):AID2717, AID2721]; format: functional; settings: Homo sapiens
Streptokinase A = molecular target: T2, Streptokinase A (Streptococcus pyogenes serotype M1, UniProt P10520); assay: S. pyogenes streptokinase expression inhibitors, potency, dose response, plasminogen activation absorbance, OD405 (AID 1914); format: functional, Streptococcus pyogenes M1 GAS;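 further: secreted streptokinase activity via plasminogen activation per viability signal from cell pellet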
T2 sequence (P10520 whole entry): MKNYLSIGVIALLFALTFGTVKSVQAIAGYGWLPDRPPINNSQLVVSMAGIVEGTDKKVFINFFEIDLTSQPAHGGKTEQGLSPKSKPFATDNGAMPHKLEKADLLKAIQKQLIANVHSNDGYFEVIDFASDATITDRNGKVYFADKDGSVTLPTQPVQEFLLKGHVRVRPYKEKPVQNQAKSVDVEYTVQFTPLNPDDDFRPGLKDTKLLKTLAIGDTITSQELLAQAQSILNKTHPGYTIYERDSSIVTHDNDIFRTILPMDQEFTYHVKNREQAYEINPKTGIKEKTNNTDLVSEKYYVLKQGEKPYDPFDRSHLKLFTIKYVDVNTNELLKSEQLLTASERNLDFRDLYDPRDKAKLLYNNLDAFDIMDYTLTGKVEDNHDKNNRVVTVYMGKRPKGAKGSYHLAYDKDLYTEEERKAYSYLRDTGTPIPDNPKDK

[4] = inhibitors of intracellular T. cruzi replication, confirmation, NIH3T3 host cells, beta-gal luminescence (AID 2044); format: functional, cell-based;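 further: intracellular parasites grown in NIH/3T3 mouse fibroblasts as host cells; luminescent beta-galactosidase reporter signal from transgenic T. cruzi replicating inside host cells; inhibitors lower the luminescence signal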
H4 = assay: Luminescence Cell-Based Dose Response HTS to Identify Activators of 5'UTR Stem-Loop Driven Prion Protein mRNA Translation in H4 Neuroglioblastoma Cells. [Related pubchem assays: 1829 (Project Summary), 1814 (Primary HTS)]; format: functional; settings: Homo sapiens
[5] = Luminescence Cell-Based Dose Confirmation HTS to Identify Activators of 5'UTR Stem-Loop Driven Alpha-Synuclein mRNA Translation in H4 Neuroglioblastoma Cells. [Related pubchem assays: 1829 (Project Summary), 1814 (Primary HTS)]; format: functional
[6] = cytotoxicity toward NIH3T3 fibroblasts, dose response, counter-screen, cell-based, ATP luminescence, mouse fibroblasts (AID 2010); format: functional;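 further: cells exposed to compound for about 90 hours before reading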
[7] = Luminescence Cell-Based Dose Response HTS to Identify Activators of Luciferase Translation or Activity in H4 […] Cells. [Related pubchem assays: 1829 (Project Summary), 1814 (Primary HTS)]; format: functional
INS1 = assay: beta cell apoptosis inhibitors, cytokine rescue, dose response, luminescence, retest (AID 449756); format: functional, cell-based; settings: Rattus norvegicus;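 further: cell death triggered by IL-1 beta plus TNF-alpha plus IFN-gamma mixture; protective hits raise ATP signal compared with cytokine alone wells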
[8] = molecular target: T3, Corticotropin-releasing factor receptor 2/Corticotropin-releasing factor-binding protein (Homo sapiens, UniProt P24387+Q13324); assay: activators of CRF receptor 2 with binding protein – uHTS hits, confirmation (AID 602473); format: functional; settings: read-out: EC50_Mean
T3 sequence (Q13324 whole entry): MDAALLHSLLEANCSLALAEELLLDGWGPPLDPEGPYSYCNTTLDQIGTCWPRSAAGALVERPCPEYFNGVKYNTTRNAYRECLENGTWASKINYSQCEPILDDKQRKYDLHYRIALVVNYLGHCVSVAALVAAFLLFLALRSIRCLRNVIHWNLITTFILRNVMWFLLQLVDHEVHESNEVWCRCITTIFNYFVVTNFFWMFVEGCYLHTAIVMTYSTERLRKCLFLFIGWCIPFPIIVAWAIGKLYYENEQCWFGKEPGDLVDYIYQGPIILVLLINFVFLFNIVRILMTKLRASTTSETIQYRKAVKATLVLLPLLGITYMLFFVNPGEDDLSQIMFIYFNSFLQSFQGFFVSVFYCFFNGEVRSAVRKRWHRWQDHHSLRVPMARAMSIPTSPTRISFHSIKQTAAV
T3 sequence (P24387 whole entry): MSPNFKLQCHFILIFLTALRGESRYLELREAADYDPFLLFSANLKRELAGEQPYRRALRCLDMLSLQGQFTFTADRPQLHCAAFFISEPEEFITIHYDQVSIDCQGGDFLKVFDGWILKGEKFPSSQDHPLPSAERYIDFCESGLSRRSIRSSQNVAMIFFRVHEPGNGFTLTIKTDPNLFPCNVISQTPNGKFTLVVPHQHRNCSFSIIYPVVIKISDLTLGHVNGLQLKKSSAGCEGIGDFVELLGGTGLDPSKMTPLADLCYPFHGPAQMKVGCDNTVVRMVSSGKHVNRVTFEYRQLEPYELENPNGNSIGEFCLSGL

## COc1cc(-c2nnc(CSc3nnc(Nc4ccc(C(C)C)cc4)s3)o2)cc(OC)c1OC
[1]
  EC50: 31.8 µM (active)

## Cc1ccc(CSc2nc3sc(C)c(C)c3c(=O)n2Cc2ccco2)cc1
[2]
  EC50: > 150 µM (not active)
Streptococcus
  EC50: > 150 µM (not active)
[3]
  AC50: 23.3 µM (active)
Streptokinase A
  EC50: 99.5 µM (active)

## C/C(=C\C(=O)Nc1cscc1C)C(=O)O
[1]
  EC50: > 260 µM (inactive)

## Cc1cc(C)c2c3c(sc2n1)C1(CCSCC1)C(C#N)=C(N)O3
[4]
  EC50: 0.118 µM (active)
H4
  EC50: 14.7 µM (active)
[5]
  EC50: 20.3 µM (active)
[6]
  EC50: > 30 µM (not active)
[7]
  EC50: 14.5 µM (inconclusive)

## CN(/N=C/c1cc(Cl)cc(Cl)c1O)C(=S)NC(C)(C)C
[3]
  AC50: 2.5 µM (active)

## CCc1cccc(NS(=O)(=O)c2ccc3c(c2)NC(=O)C(C)S3)c1 (configuration not stated)
[1]
  EC50: > 260 µM (inactive)

## COC(=O)c1ccc(COc2ccccc2/C=N/NS(=O)(=O)c2ccc(C)cc2)cc1
H4
  EC50: > 120 µM (not active)
[5]
  EC50: > 120 µM (not active)
[7]
  EC50: > 120 µM (not active)

## O=C(C[n+]1cccc(C(=O)Nc2ccccc2)c1)c1ccc([N+](=O)[O-])cc1
[1]
  EC50: 64.6 µM (active)

## Cc1ccc(CNc2c(C=O)c(O)nc3ccccc23)cc1
[1]
  EC50: > 260 µM (inactive)

## CC(C)C[C@H]1CN=C(Nc2ccccc2)N1CCc1ccc(F)cc1
INS1
  AC50: 64.4 µM (active)

## CCOc1cc(/C=C2\CCCc3c2nc2ccccc2c3C(=O)O)ccc1OC
[1]
  EC50: > 260 µM (inactive)

## Cc1c(OCC(=O)NCCCn2ccnc2)ccc2c3c(c(=O)oc12)CCCC3
[1]
  EC50: > 260 µM (inactive)

## CCOC(=O)Cc1nnc(Nc2cccc(C)c2)c2ccccc12
[1]
  EC50: > 260 µM (inactive)

## CC(C)(C)NC(=O)C(c1ccncc1)N(C(=O)Cn1nnc(-c2cccs2)n1)C1CCCCC1 (configuration not stated)
[1]
  EC50: > 260 µM (inactive)

## CCCCn1c(N)c(N(CC(C)C)C(=O)C2CCN(S(=O)(=O)c3ccc(C)c(C)c3)CC2)c(=O)[nH]c1=O
[1]
  EC50: > 260 µM (inactive)

## O=C(Nc1cccc(Cl)c1)Nc1sccc1-c1nc2ccccc2s1
[3]
  AC50: 39 µM (active)

## CCOC(=O)c1cnc(-n2nc(C)cc2C)nc1Nc1ccc(N(C)C)cc1
[4]
  EC50: 1.12 µM (active)
[6]
  EC50: > 30 µM (not active)
INS1
  AC50: 4.04 µM (active)

## CC1(C)CC(=O)C2=C(C1)c1c(ccc3ccccc13)NC2c1ccco1 (configuration not stated)
H4
  EC50: > 120 µM (not active)
[5]
  EC50: 15.7 µM (active)
[7]
  EC50: 27.4 µM (active)

## Cc1nnc2n1N=CC=C(c1ccccc1)S2
H4
  EC50: > 120 µM (not active)
[5]
  EC50: 0.547 µM (active)
[7]
  EC50: 7.89 µM (active)

## O=C(CCS(=O)(=O)c1cccs1)NC1CCCCCC1
H4
  EC50: 16 µM (active)
[5]
  EC50: 13.5 µM (active)
[7]
  EC50: 29.1 µM (active)

## N#Cc1c(-c2ccccc2)cc(-c2ccccc2)nc1SCC(=O)NCC(=O)O
[8]
  EC50: 12.2 µM (active)

## Cc1ccc(N=C2NC(=O)CS2)cc1
[1]
  EC50: > 260 µM (inactive)

## Cc1ccc(Sc2cc(C)nc(-c3ccccn3)n2)cc1
[2]
  EC50: 21.1 µM (active)
Streptococcus
  EC50: 49.4 µM (active)
INS1
  AC50: 4 µM (active)
Streptokinase A
  EC50: > 150 µM (not active)

## Cc1cc(O)[nH]c2nnc(-c3ccccc3)c1-2
H4
  EC50: 15.1 µM (active)
[5]
  EC50: 8.88 µM (active)
[7]
  EC50: 10 µM (active)

## c1ccc(-c2nc(CSc3n[nH]c(-c4cccs4)n3)cs2)cc1
[1]
  EC50: > 260 µM (inactive)

## CC1=NN(C(N)=S)C(=O)C1N=Nc1ccc(Cl)cc1Cl (configuration not stated)
H4
  EC50: > 120 µM (not active)
[5]
  EC50: 1.09 µM (active)
[7]
  EC50: > 120 µM (not active)

## c1ccc(-c2sc3ccccc3c2-c2ccc(OCCN3CCOCC3)cc2)cc1
[3]
  AC50: 2.28 µM (active)

## Cc1nc2ccccc2c(=O)n1/N=C1\C(=O)N(C)c2ccccc21
H4
  EC50: > 120 µM (not active)
[5]
  EC50: > 120 µM (not active)
[7]
  EC50: 12.6 µM (active)

## Oc1c2cnnc-2nc(SCc2ccccc2F)n1-c1ccc(Br)cc1
[3]
  AC50: 3.3 µM (active)

## Cc1ccc(-c2csc(NC(=O)c3cccc([N+](=O)[O-])c3)n2)cc1
[1]
  EC50: > 260 µM (inactive)

## CN1/C(=C\C(=S)NC(=O)c2ccc([N+](=O)[O-])cc2)C(C)(C)c2ccccc21
INS1
  AC50: 22.2 µM (active)

## Cc1ccc(OCc2ccc(C#N)cc2)c(C(=O)c2cc(C#N)c(=O)n(C3CC3)c2)c1
[1]
  EC50: > 260 µM (inactive)

## O=C1NC2(CCCCC2)C(=O)N1/N=C/c1ccccc1Br
H4
  EC50: 16.1 µM (active)
[5]
  EC50: > 120 µM (not active)
[7]
  EC50: 24.6 µM (active)

## COc1ccc(C)cc1Nc1n[n+](-c2ccccc2)c(-c2c(OC)ccc3ccccc23)s1
[3]
  AC50: 4.84 µM (active)
INS1
  AC50: 5.74 µM (active)

## CCN1/C(=N/c2ccc(Cl)cc2)SC/C1=C\C(=O)OC
H4
  EC50: 23.7 µM (active)
[5]
  EC50: 17.1 µM (active)
[7]
  EC50: 26.6 µM (active)

## CC1(C)CC(=O)/C(=C\c2cccc([N+](=O)[O-])c2)C(C)(C)N1
[1]
  EC50: 18.6 µM (active)
